The values below come from PMC4357015, “Structure, Function and Inhibition of the Phosphoethanolamine Methyltransferases of the Human Malaria Parasites Plasmodium vivax and Plasmodium knowlesi” (Scientific Reports, 2015).

The target in series [1] is T1, PvPMT (Plasmodium vivax, UniProt A5K867).
T1 sequence (A5K867 1-264): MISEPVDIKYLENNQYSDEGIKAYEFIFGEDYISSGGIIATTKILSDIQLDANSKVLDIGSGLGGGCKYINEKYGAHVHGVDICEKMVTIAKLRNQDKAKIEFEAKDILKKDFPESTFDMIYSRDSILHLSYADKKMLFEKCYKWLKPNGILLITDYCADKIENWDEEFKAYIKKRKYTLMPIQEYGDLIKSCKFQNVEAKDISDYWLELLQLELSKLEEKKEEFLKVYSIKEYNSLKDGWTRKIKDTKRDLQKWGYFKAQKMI
Kind of series: kinetic parameters of PvPMT, radiometric assay. It is filed as biochemical. As to conditions: varied substrate, other constant (SAM 1.5 mM or P-Etn 2.0 mM). How it is done: (§1) Figure 2 Analysis of kinetic parameters of P.vivax (top panel) and P. knowlesi PMT enzymes (bottom panel). The Km values for phosphoethanolamine (P-Etn) was determined under standard assay conditions with varying concentrations of P-Eth (0–800 μM) and at constant S-adenosylmethionine (SAM) concentration of 1.5 mM. The Km values for SAM were determined under standard assay conditions with varying concentrations of SAM (0–600 μM) and at constant P-Etn concentration of 2.0 mM. All data were fitted to the Michaelis-Menten equation, v = (kcat [Et][S])/(Km + [S]) using Graph pad software.
(§2) For enzyme kinetics studies recombinant histidine-tagged proteins were expressed using 1 mM IPTG for 4 h, purified using Ni-affinity purification and dialyzed. As expected, purified proteins migrated in SDS-PAGE gels at approximately 31 kDa. The purified proteins were stored in HEPES-KOH buffer (pH 7.4) at 4°C and were assayed within a month of purification. During this time, the integrity of the protein was assessed by SDS-PAGE. The kinetic properties of enzymes were assessed using radiometric assay wherein incorporation of radioactive labeled methyl donor (100nCi [methyl-^14C] SAM, Perkin elmer NEC363010UC) or (200nCi [methyl-^3H] SAM, Perkin Elmer NET155H250UC) was measured. The enzymatic assay conditions were carried out in 100 μl volume containing 0.1 M Hepes, KOH (pH8.6), 2 mM Na2EDTA and10% glycerol. For NSC158011 related studies, 10% DMSO was added to the reaction mixture. Purified enzyme (322 nM) was used in each reaction and the reactions were incubated at 37°C for 30 minutes, thereafter the reaction was terminated using 1 ml cold water. Afterwards, the product was purified by batch purification using AG (H+ resin) (Biorad # 142-1451) using the protocol provided by the manufacturer. The product was eluted from resin using 1.5 ml of 0.1 N HCl and total radioactivity was measured using the scintillation cocktail (Biosafe II).
(§3) To determine the Km value for P-Eth, enzymatic reactions were carried out with 0-0.8 mM of P-Eth at constant 1.5 mM SAM. Similarly Km value for SAM was carried with 0–0.6 mM SAM at constant 2 mM P-Ethanolamine (P-Etn). The inhibition of PvPMT and PkPMT by AQ, CQ and NSC158011were also examined using the same radiometric PMT transmethylation assay. Enzyme activity was evaluated at 0, 100, 500 and 1000 μM of the inhibitor at a fixed concentration of P-Eth (2 mM) and SAM (1.5 mM). To calculate IC50 the data was fitted to non-linear regression analysis in the following equation Y = 100/(1 + ([X]/IC50)), where Y is % enzyme activity and X is inhibitor concentration using Graph pad software.

The target of series [2] is T2, PkPMT (Plasmodium knowlesi, UniProt A0A384KJX3).
T2 sequence (A0A384KJX3 1-264): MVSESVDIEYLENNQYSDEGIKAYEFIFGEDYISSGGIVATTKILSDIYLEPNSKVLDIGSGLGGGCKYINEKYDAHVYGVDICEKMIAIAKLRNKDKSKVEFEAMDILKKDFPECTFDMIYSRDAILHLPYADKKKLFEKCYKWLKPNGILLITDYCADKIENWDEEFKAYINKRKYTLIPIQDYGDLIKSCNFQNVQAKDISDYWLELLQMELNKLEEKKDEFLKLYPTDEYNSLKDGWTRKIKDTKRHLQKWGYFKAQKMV
Briefly: kinetic parameters of PkPMT, radiometric assay. The series is classed as biochemical. As to conditions: varied substrate, other constant (SAM 1.5 mM or P-Etn 2.0 mM). Here is the method:
as §1, §2, §3

Series [3] deals with T1, PvPMT. Briefly: radiometric PMT transmethylation assay, inhibition of PvPMT. It is filed as biochemical. How it is done:
(§4) Figure 3 Amodiaquine (AQ) and NSC158011 inhibit the activity of PvPMT and PkPMT. Enzyme inhibition assays with different concentrations of Amodiaquine (AQ), NSC158011 and Chloroquine (CQ) were carried out at constant P-Etn (2 mM) and SAM (1.5 mM) concentrations. The activity in the absence of any drug was taken as 100% and % enzyme activity was calculated in the presence of different drug concentrations (100, 500, 1000 μM). To determine the concentration that results in 50% inhibition of enzyme activity (IC50), the data were fitted to a non-linear regression analysis in the following equation Y = 100/(1 + ([X]/IC50)), where Y is % enzyme activity and X is drug concentration using Graph pad software.
(§5) For enzyme kinetics studies recombinant histidine-tagged proteins were expressed using 1 mM IPTG for 4 h, purified using Ni-affinity purification and dialyzed. As expected, purified proteins migrated in SDS-PAGE gels at approximately 31 kDa. The purified proteins were stored in HEPES-KOH buffer (pH 7.4) at 4°C and were assayed within a month of purification. During this time, the integrity of the protein was assessed by SDS-PAGE. The kinetic properties of enzymes were assessed using radiometric assay wherein incorporation of radioactive labeled methyl donor (100nCi [methyl-^14C] SAM, Perkin elmer NEC363010UC) or (200nCi [methyl-^3H] SAM, Perkin Elmer NET155H250UC) was measured. […]

Series [4] has as its target T2, PkPMT. Briefly: radiometric PMT transmethylation assay, inhibition of PkPMT. The series is classed as biochemical. Here is the method:
as §4, §5

Substrate in series [5]: C[S+](CC[C@H](N)C(=O)[O-])C[C@H]1O[C@@H](n2cnc3c(N)ncnc32)[C@H](O)[C@@H]1O
Briefly: kinetic parameters of PvPMT, radiometric assay. The series is classed as biochemical, Plasmodium vivax. As to conditions: other: PvPMT; varied substrate, other constant (SAM 1.5 mM or P-Etn 2.0 mM); 37.0 °C. How it is done:
as §1, §2
(§6) To determine the Km value for P-Eth, enzymatic reactions were carried out with 0-0.8 mM of P-Eth at constant 1.5 mM SAM. […]

Substrate in series [6]: C[S+](CC[C@H](N)C(=O)[O-])C[C@H]1O[C@@H](n2cnc3c(N)ncnc32)[C@H](O)[C@@H]1O
Kind of series: kinetic parameters of PkPMT, radiometric assay. It is filed as biochemical, Plasmodium knowlesi. As to conditions: other: PkPMT; varied substrate, other constant (SAM 1.5 mM or P-Etn 2.0 mM); 37.0 °C. Here is the method: as §1, §2, §6

Consider `NCCOP(=O)(O)O` [P-Etn, phosphoethanolamine], for which, at PvPMT [1], the Kcat amounted to 0.00083 ± 0.00017 s⁻¹, the Km amounted to 210 ± 70 µM and the Vmax amounted to 18.67 ± 2.93 nmolmin^−1 mg^−1Protein. For the same molecule, on PkPMT [2], the Kcat worked out at 0.00433 ± 0.00033 s⁻¹, the Michaelis constant (Km) turned out to be 100 ± 30 µM and the Vmax is listed as 86.01 ± 8.35 nmolmin^−1 mg^−1Protein.

On to `CCN(CC)CCCC(C)Nc1ccnc2cc(Cl)ccc12` (stereo not shown) [CQ, chloroquine], for which the IC50 on PvPMT [3] worked out at 146 µM; on PkPMT [4], 987 µM.

With `C[S+](CC[C@H](N)C(=O)[O-])C[C@H]1O[C@@H](n2cnc3c(N)ncnc32)[C@H](O)[C@@H]1O` (stereo partly shown) [SAM, S-adenosylmethionine], the Vmax at PvPMT [1] is 12.62 ± 0.95 nmolmin^−1 mg^−1Protein; at PkPMT [2], 119.7 ± 15.41 nmolmin^−1 mg^−1Protein.

B1: PvPMT (Plasmodium vivax Sal-1) (protein)
chain: T1 sequence (A5K867 1-264)
Consider B1, for which, in series [5], the Km stood at 230 ± 70 µM, the kcat turned out to be 0.000667 ± 0.000333 s⁻¹ and the kcat/Km stood at 2.83 M⁻¹ s⁻¹.

B2: PkPMT (Plasmodium knowlesi strain H) (protein)
chain: T2 sequence (A0A384KJX3 1-264)
Regarding B2, in series [6], the Km amounted to 270 ± 90 µM, the kcat worked out at 0.00617 ± 0.0005 s⁻¹ and the kcat/Km was 22.8 M⁻¹ s⁻¹.

As usually defined, the Km is the substrate concentration at which the rate is half of its maximum. A word on the IC50: it is the concentration at which inhibition is half-maximal. One may read the kcat as the number of substrate molecules converted per active site and unit of time at saturation. One may read the kcat/Km as the turnover number divided by the Michaelis constant.
